IC50 data for 41 compounds are collected here from patent US20110178041A1, “HETEROCYCLIC BIARYL DERIVATIVE AND PDE INHIBITOR COMPRISING SAME AS ACTIVE INGREDIENT” (priority 2008, published 2011).

Structures are written as SMILES.

This assay deals with T1, PDE4B catalytic zone (PDE4Bcat) (Homo sapiens, UniProt Q07343).
T1 construct: made in house; host or cells: Sf9 insect cells (baculovirus, Bac-to-Bac / Gateway)
T1 sequence (Q07343 330-659 limits assumed): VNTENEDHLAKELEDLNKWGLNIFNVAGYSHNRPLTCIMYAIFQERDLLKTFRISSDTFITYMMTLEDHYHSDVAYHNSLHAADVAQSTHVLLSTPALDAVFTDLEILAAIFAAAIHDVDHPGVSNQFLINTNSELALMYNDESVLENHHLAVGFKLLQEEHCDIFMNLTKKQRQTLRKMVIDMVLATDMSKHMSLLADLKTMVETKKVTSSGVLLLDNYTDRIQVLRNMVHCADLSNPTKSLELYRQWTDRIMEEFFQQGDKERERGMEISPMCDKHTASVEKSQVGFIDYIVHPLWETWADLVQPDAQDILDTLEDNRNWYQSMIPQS
Put plainly: Phosphodiesterase 4 inhibitory activity ([3H]-cAMP, recombinant PDE4Bcat). It counts as biochemical. The following applies: 30° C. 20 minutes, read-out: IC50 (μmol/L) PDE4.
Take `COc1ccc(-c2ccc3[nH]c(=O)ccc3c2)c2cc(C(F)(F)F)nn12` [Example 50, 6-(7-Methoxy-2-trifluoromethylpyrazolo[1,5-a]pyridin-4-yl)quinolin-2(1H)-one]: the IC50 is less than 0.01 µmol/L.

In the case of `COc1ccc(-c2cc(=O)[nH]c3ccccc23)c2cc(C(F)(F)F)nn12` [Example 51, 4-(7-Methoxy-2-trifluoromethylpyrazolo[1,5-a]pyridin-4-yl)quinolin-2(1H)-one], the IC50 fell in the range of 0.01 to 0.1 µmol/L. The result for `COc1ccc(-c2cccc3c(=O)[nH]ccc23)c2cc(C(F)(F)F)nn12` [Example 52, 5-(7-Methoxy-2-trifluoromethylpyrazolo[1,5-a]pyridin-4-yl)iso quinolin-1(2H)-one] reads 0.01 to 0.1 µmol/L; that for `COc1ccc(-c2ccc3cc[nH]c(=O)c3c2)c2cc(C(F)(F)F)nn12` [Example 54, 7-(7-Methoxy-2-trifluoromethylpyrazolo[1,5-a]pyridin-4-yl)iso quinolin-1(2H)-one], less than 0.01 µmol/L.

Take `COc1ccc(-c2ccc3c(c2)CCC(=O)N3)c2cc(C(F)(F)F)nn12` [Example 56, 6-(7-Methoxy-2-trifluoromethylpyrazolo[1,5-a]pyridin-4-yl)-3,4-dihydroquinolin-2(1H)-one]: the IC50 is 0.01 to 0.1 µmol/L. Take `COc1ccc(-c2ccc3c(c2)CC(=O)N3)c2cc(C(F)(F)F)nn12` [Example 57, 5-(7-Methoxy-2-trifluoromethylpyrazolo[1,5-a]pyridin-4-yl)indolin-2-one]: the IC50 was in the range of 0.01 to 0.1 µmol/L. The result for `COc1ccc(-c2ccc3[nH]c(=O)ccc3c2)c2c(Cl)c(C(F)(F)F)nn12` [Example 61, 6-(3-Chloro-7-methoxy-2-trifluoromethylpyrazolo[1,5-a]pyridin-4-yl)quinolin-2(1H)-one] reads less than 0.01 µmol/L. The same measure for `CNc1ccc(-c2ccc3[nH]c(=O)ccc3c2)c2c(Cl)c(C(F)(F)F)nn12` [Example 65, 6-(3-Chloro-7-methylamino-2-trifluoromethylpyrazolo[1,5-a]pyridin-4-yl)quinolin-2(1H)-one]: less than 0.01 µmol/L; for `CNc1ccc(-c2ccc3c(c2)CCNC3=O)c2c(Cl)c(C(F)(F)F)nn12` [Example 66]: less than 0.01 µmol/L. The result for `CCc1ccc2c(-c3ccc4[nH]c(=O)ccc4c3)ccc(OC)c2n1` [Example 67, 2-Ethyl-8-methoxy-5,6′-biquinolin-2′(1′H)-one] reads 0.01 to 0.1 µmol/L; that for `COc1ccc(-c2ccc3[nH]c(=O)ccc3c2)c2ccc(C)nc12` [Example 68, 8-Methoxy-2-methyl-5,6′-biquinolin-2′(1′H)-one], 0.01 to 0.1 µmol/L; that for `COc1ccc(-c2ccc3[nH]c(=O)ccc3c2)c2ccc(C(F)(F)F)nc12` [Example 69, 8-Methoxy-2-trifluoromethyl-5,6′-biquinolin-2′(1′H)-one], 0.01 to 0.1 µmol/L. For the compound `COc1ccc(-c2ccc3[nH]c(=O)ccc3c2)c2nc(C(F)(F)F)nn12` [Example 70, 6-(5-Methoxy-2-trifluoromethyl[1,2,4]triazolo[1,5-a]pyridin-8-yl) quinolin-2(1H)-one], the IC50 is less than 0.01 µmol/L. The same measure for `COc1ccc(-c2ccc3[nH]c(=O)ccc3c2)c2sc(C(F)(F)F)nc12` [Example 71, 6-(4-Methoxy-2-trifluoromethylbenzo[d]thiazol-7-yl)quinolin-2(1H)-one]: less than 0.01 µmol/L.

With `COc1ccc(-c2ccc3[nH]c(=O)ccc3c2)c2c1OCNC2=O` [Example 72, 8-Methoxy-5-(2-oxo-1,2-dihydroquinolin-6-yl)-2H-benzo[e][1,3]oxazin-4-(3H)-one], the IC50 was in the range of 0.01 to 0.1 µmol/L. For the compound `COc1ccc(-c2ccc3[nH]c(=O)ccc3c2)c2c1OCC(=O)N2` [Example 74, 8-Methoxy-5-(2-oxo-1,2-dihydroquinolin-6-yl)-2H-benzo[b][1,4]oxazin-3(4H)-one], the IC50 lay in the range of 0.01 to 0.1 µmol/L.

As for `COc1ccc(-c2ccc3c(=O)[nH]ccc3c2)c2cccnc12` [Example 80, 6-(8-Methoxyquinolin-5-yl)isoquinolin-1(2H)-one], the IC50 fell in the range of 0.01 to 0.1 µmol/L.

Take `CCc1ccc2c(-c3ccc4cc[nH]c(=O)c4c3)ccc(OC)c2n1` [Example 83, 7-(2-Ethyl-8-methoxyquinolin-5-yl)isoquinolin-1(2H)-one]: the IC50 was in the range of 0.01 to 0.1 µmol/L. The result for `COc1ccc(-c2ccc3[nH]c(=O)ccc3c2)c2nccnc12` [Example 86, 6-(8-Methoxyquinoxalin-5-yl)quinolin-2(1H)-one] reads less than 0.01 µmol/L; that for `CCc1cc2c(-c3ccc4[nH]c(=O)ccc4c3)ccc(OC)n2n1` [Example 87, 6-(2-Ethyl-7-methoxypyrazolo[1,5-a]pyridin-4-yl)quinolin-2(1H)-one], 0.01 to 0.1 µmol/L.

Turning to `COc1ccc(-c2ccc3[nH]c(=O)ccc3c2)c2cncnc12` [Example 88, 6-(8-methoxyquinazolin-5-yl)quinolin-2(1H)-one], the IC50 lay in the range of 0.01 to 0.1 µmol/L.

As to `COc1ccc(-c2ccc3[nH]c(=O)ccc3c2)n2cc(C(F)(F)F)nc12` [Example 90, 6-(8-Methoxy-2-trifluoromethylimidazo[1,2-a]pyridin-5-yl)quinolin-2(1H)-one], the IC50 was 0.01 to 0.1 µmol/L. The same measure for `COc1ccc(-c2ccc3c(ccc(=O)n3C)c2)c2cc(C(F)(F)F)nn12` [Example 91, 6-(7-Methoxy-2-trifluoromethylpyrazolo[1,5-a]pyridin-4-yl)-1-methyl quinolin-2(1H)-one]: less than 0.01 µmol/L; for `CCOC(=O)Cn1c(=O)ccc2cc(-c3ccc(OC)n4nc(C(F)(F)F)cc34)ccc21` [Example 92, Ethyl 2-(6-(7-methoxy-2-trifluoromethylpyrazolo[1,5-a]pyridin-4-yl)-2-oxo-quinolin-2(1H)-yl)acetate]: 0.01 to 0.1 µmol/L; for `COc1ccc(-c2ccc3c(ccc(=O)n3CC(=O)O)c2)c2cc(C(F)(F)F)nn12` [Example 93, 2-(6-(7-Methoxy-2-trifluoromethylpyrazolo[1,5-a]pyridin-4-yl)-2-oxoquinolin-2(1H)-yl)acetic acid]: 0.01 to 0.1 µmol/L. The result for `COc1ccc(-c2ccc3c(ccc(=O)n3Cc3ccccc3)c2)c2cc(C(F)(F)F)nn12` [Example 94, 1-Benzyl-6-(7-methoxy-2-trifluoromethylpyrazolo[1,5-a]pyridin-4-yl)quinolin-2(1H)-one] reads less than 0.01 µmol/L. The result for `COc1ccc(-c2ccc3[nH]c(=O)ccc3c2)c2cc(C(F)(F)F)sc12` [Example 111] reads 0.01 to 0.1 µmol/L; that for `CCc1nc2c(OC)ccc(-c3ccc4[nH]c(=O)ccc4c3)c2o1` [Example 112, 6-(2-Ethyl-4-methoxybenzo[d]oxazol-7-yl)quinolin-2(1H)-one], less than 0.01 µmol/L. As for `COc1ccc(-c2ccc3[nH]c(=O)ccc3c2)c2cc(C3CC3)nn12` [Example 114, 6-(2-Cyclopropyl-7-methoxypyrazolo[1,5-a]pyridin-4-yl)quinolin-2(1H)-one], the IC50 is less than 0.01 µmol/L. The same measure for `COc1ccc(-c2ccc3c(c2)CCC(=O)N3)c2c(Cl)c(C(F)(F)F)nn12` [Example 116, 6-(3-Chloro-7-methoxy-2-trifluoromethylpyrazolo[1,5-a]pyridin-4-yl)-3,4-dihydroquinolin-2(1H)-one]: 0.01 to 0.1 µmol/L; for `COc1ccc(-c2ccc3c(c2)CCC(=O)N3C)c2c(Cl)c(C(F)(F)F)nn12` [Example 117, 6-(3-Chloro-7-methoxy-2-trifluoromethylpyrazolo[1,5-a]pyridin-4-yl)-1-methyl-3,4-dihydroquinolin-2(1H)-one]: 0.01 to 0.1 µmol/L; for `COc1ccc(-c2ccc3[nH]c(=O)ccc3c2)c2[nH]c(C(F)(F)F)nc12` [Example 118, 6-(4-Methoxy-2-trifluoromethyl-1H-benzo[d]imidazol-7-yl)quinolin-2(1H)-one; or 6-(7-methoxy-2-trifluoromethyl-1H-benzo[d]imidazol-4-yl)quinolin-2(1H)-one]: 0.01 to 0.1 µmol/L. The same measure for `COc1ccc(-c2ccc3[nH]c(=O)ccc3c2)c2cc(C(F)(F)F)oc12` [Example 119, 6-(7-Methoxy-2-trifluoromethylbenzofuran-4-yl)quinolin-2(1H)-one]: less than 0.01 µmol/L. The result for `COc1ccc(-c2ccc3[nH]c(=O)ccc3c2)c2cccnc12` [Example 120, 6-(8-Methoxyquinolin-5-yl)quinolin-2(1H)-one] reads 0.01 to 0.1 µmol/L; that for `COc1ccc(-c2ccc3c(c2)CC(C)NC3=O)c2cc(C(F)(F)F)nn12` (centres unmarked) [Example 122, 6-(7-Methoxy-2-trifluoromethylpyrazolo[1,5-a]pyridin-4-yl)-3-methyl-3,4-dihydroisoquinolin-1(2H)-one], 0.01 to 0.1 µmol/L; that for `COc1ccc(-c2ccc3c(=O)[nH]cc(Cl)c3c2)c2c(Cl)c(C(F)(F)F)nn12` [Example 125, 4-Chloro-6-(3-chloro-7-methoxy-2-trifluoromethylpyrazolo[1,5-a]pyridin-4-yl)isoquinolin-1(2H)-one], less than 0.01 µmol/L. As for `COc1ccc(-c2ccc3c(=O)[nH]cc(Cl)c3c2)n2c(Cl)c(C(F)(F)F)nc12` [Example 126, 4-Chloro-6-(3-chloro-8-methoxy-2-trifluoromethylimidazo[1,2-a]pyridin-5-yl)isoquinolin-1(2H)-one], the IC50 was less than 0.01 µmol/L. The result for `CNc1ccc(-c2ccc3c(ccc(=O)n3C)c2)c2c(Cl)c(C(F)(F)F)nn12` [Example 137] reads less than 0.01 µmol/L. With `CNc1ccc(-c2ccc3c(=O)[nH]cc(Cl)c3c2)c2cc(C(F)(F)F)nn12` [Example 138, 4-Chloro-6-(7-(methylamino)-2-trifluoromethylpyrazolo[1,5-a]pyridin-4-yl)isoquinolin-1(2H)-one], the IC50 was less than 0.01 µmol/L.

On to `CNc1ccc(-c2ccc3c(=O)[nH]cc(Cl)c3c2)c2c(Cl)c(C(F)(F)F)nn12` [Example 139, 4-Chloro-6-(3-chloro-7-(methylamino)-2-trifluoromethylpyrazolo[1,5-a]pyridin-4-yl)isoquinolin-1(2H)-one], for which the IC50 was less than 0.01 µmol/L. The same measure for `Nc1ccc(-c2ccc3[nH]c(=O)ccc3c2)c2cc(C(F)(F)F)nn12` [Example 140, 6-(7-Amino-2-trifluoromethylpyrazolo[1,5-a]pyridin-4-yl)quinolin-2(1H)-one]: less than 0.01 µmol/L.
